The target of one data set is Albumin (Homo sapiens, UniProt P02768). To be noted: parent drugs; cited from earlier work.
The subject of a further data set is OVCA429. The data set can be described thus: Resazurin-based viability assay, 48 hr treatment, OVCA429. To be noted: read-out: OVCA429 IC50. The class given is cell-based, human. Background: The colour change of resazurin is a common sign of viable cells or microbes.
The conditions of data set [1]: cited from earlier work.
The conditions of data set [2]: parent drugs; cited from earlier work.
The next data set concerns SKOV3. As to the kind of experiment: Resazurin-based viability assay, 48 hr treatment, SKOV3. The class given is cell-based, human. Particulars: read-out: SKOV3 IC50.

Chain of Albumin (P02768 25-609, species assumed): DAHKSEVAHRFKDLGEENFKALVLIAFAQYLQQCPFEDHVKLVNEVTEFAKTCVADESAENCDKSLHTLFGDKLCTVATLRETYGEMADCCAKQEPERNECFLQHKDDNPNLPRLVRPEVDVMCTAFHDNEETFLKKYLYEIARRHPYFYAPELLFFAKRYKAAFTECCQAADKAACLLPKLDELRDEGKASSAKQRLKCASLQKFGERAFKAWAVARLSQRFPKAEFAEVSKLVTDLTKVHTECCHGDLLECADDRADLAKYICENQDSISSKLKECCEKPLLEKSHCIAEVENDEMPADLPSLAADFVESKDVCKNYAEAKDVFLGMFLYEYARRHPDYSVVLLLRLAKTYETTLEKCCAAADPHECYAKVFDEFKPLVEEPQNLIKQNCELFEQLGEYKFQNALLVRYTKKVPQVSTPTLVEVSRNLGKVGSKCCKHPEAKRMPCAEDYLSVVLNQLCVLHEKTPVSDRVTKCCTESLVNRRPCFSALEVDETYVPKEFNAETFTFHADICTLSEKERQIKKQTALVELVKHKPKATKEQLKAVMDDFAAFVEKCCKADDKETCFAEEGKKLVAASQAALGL

One may read the IC50 as the concentration that inhibits the measured activity by half. `N.N.O=C([O-])C1(C(=O)[O-])CCC1.[Pt+2]` [Carboplatin, carboplatin]: at Albumin, the “% Albumin Binding” value was 40[29] %. Moreover, the IC50 came out at 210 ± 6 µM in the data set on OVCA429 and 100 ± 6 µM with SKOV3. The “t1/2 initial (initial plasma half-life)” value in data set [1] is 5[32-33] min. The logP in data set [2] is -2.3[30].
Regarding `N.N.[Cl][Pt][Cl]` [Cisplatin, cisplatin], the values for the IC50 in the data set on OVCA429 and with SKOV3 were 15 ± 1 µM and 3 ± 0.3 µM, respectively.

The record behind these values is paper PMC4037345 (ChemMedChem, 2014).
